From patent US11372007B2, “Method of detecting biological material, and chemiluminescent indicator used therein” (Osaka University, priority 2017, dated 2022)

Tests used:
[1] = target: T1, UnaG (CΔ0)-NLuc (NΔ1) fusion protein (wild-type chemiluminescent bilirubin indicator, linker GT), SEQ ID NO: 12 (Anguilla japonica, UniProt P0DM59); assay: titration curve of the wild-type chemiluminescent bilirubin indicator with bilirubin (luminescence spectra, Hill fit); format: binding
T1 construct: made in house; host or cells: E. coli JM109 (DE3)
Method: The base sequence of this UnaG (CΔ0)-NLuc (NΔ1) fusion protein is represented by SEQ ID NO: 11, and the amino acid sequence of the same is represented by SEQ ID NO: 12.
The JM109 (DE3) strain transformed with the UnaG (CΔ0)-NLuc (NΔ1) fusion protein was cultured at 23° C. for 60 hours in 200 mL of LB medium containing 100 μg/mL Carvenisillin solution. After harvesting, the E. coli cells were disrupted by the French press method and purified by affinity chromatography using a Ni-NTA column (QIAGEN). Furthermore, in order to remove excess imidazole, a gel filtration column (PD-10, GE HealthCare) was used. The protein concentration was measured by the Bradford method.
500 μL of the purified UnaG (CΔ0)-NLuc (NΔ1) fusion protein was added to a 15-mL Falcon tube and frozen with liquid nitrogen. Thereafter, a powder of the protein solution was obtained by a lyophilizer. […]
0.01 nM, 0.05 nM, 0.1 nM, 0.5 nM, 1 nM, 2.5 nM, 5 nM, or 10 nM bilirubin (BR) solution and Coelenterazine-h at a final concentration of 5 μM were mixed with the UnaG(CΔ0)-NLuc(NΔ1) fusion protein at a final concentration of 5 nM, and luminescence spectra were measured using a multichannel spectroscope (PMA-12, manufactured by Hamamatsu Photonics K.K.) or a plate reader. […] Mean values of measured values obtained by three independent measurements were plotted, and then fitted as per the Hill equation. […]

[2] = target: UnaG protein (wild type; UniProtKB/Swiss-Prot: P0DM59.1, GenBank: AB763906.1); settings: indirect bilirubin; Kumagai et al., Cell 2013, 153, 1602-1611; read-out: dissociation constant; cited from earlier work

T1 sequence (P0DM59 with tags, fused parts or gaps): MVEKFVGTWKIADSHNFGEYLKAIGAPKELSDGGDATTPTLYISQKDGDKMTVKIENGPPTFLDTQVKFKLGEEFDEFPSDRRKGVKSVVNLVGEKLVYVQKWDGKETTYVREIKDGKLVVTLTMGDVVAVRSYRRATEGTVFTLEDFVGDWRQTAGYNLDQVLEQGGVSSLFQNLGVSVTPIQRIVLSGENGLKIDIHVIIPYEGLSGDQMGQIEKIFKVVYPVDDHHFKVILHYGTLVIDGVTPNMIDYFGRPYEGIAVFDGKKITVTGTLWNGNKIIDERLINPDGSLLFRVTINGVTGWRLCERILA

## C=CC1=C(C)/C(=C/c2[nH]c(Cc3[nH]c(/C=C4\NC(=O)C(C)=C4C=C)c(C)c3CCC(=O)O)c(CCC(=O)O)c2C)NC1=O [bilirubin]
[1]; fusion protein 5 nM, bilirubin 0.01-10 nM, Coelenterazine-h 5 μM, mean of three independent measurements, fitted as per the Hill equation
  Kd: 3.05 nM
[1]; lyophilized sample dissolved in water, stored at room temperature
  affinity for bilirubin (dissociation constant, Kd value), change on storage: the affinity was slightly reduced

## C=CC1=C(C)/C(=C/c2[nH]c(Cc3[nH]c(/C=C4\NC(=O)C(C)=C4C=C)c(C)c3CCC(=O)O)c(CCC(=O)O)c2C)NC1=O [indirect bilirubin]
[2]
  Kd: 0.098 nM
